Results: US20250282775A1, “SOLID FORM OF 3-((1R,3R)-1-(2,6-DIFLUORO-4-((1-(3- FLUOROPROPYL)AZETIDIN-3-YL)AMINO)PHENYL)-3-METHYL-1,3,4,9- TETRAHYDRO-2H-PYRIDO[3,4-B]INDOL-2-YL)-2,2-DIFLUOROPROPAN-1-OL TARTRATE” (Hoffmann-La Roche Inc., priority 2022, published 2025)

Experiments:
Assay type in all cases: physicochemical
[1] = Particle size distribution by laser diffraction; settings: API lot
Method: The particle size distribution of crystalline 3-((1R,3R)-1-(2,6-difluoro-4-((1-(3-fluoropropyl)azetidin-3-yl)amino)phenyl)-3-methyl-1,3,4,9-tetrahydro-2H-pyrido[3,4-b]indol-2-yl)-2,2-difluoropropan-1-ol tartrate of the invention was analyzed by laser diffraction as described in the USP <429> for Laser Diffraction Measurement of Particle Size and in the European Pharmacopoeia chapter 2.9.31 Particle size analysis by Laser Diffraction. Details of the apparatus used and measurements are given in Example 3.
For the measurement, a Malvern MasterSizer 3000 device from Malvern, UK, coupled with a liquid dispersion unit Hydro MV®, Malvern, UK was used. The crystalline Giredestrant tartrate as obtained from Example 1 or 2 was dispersed in dispersion medium consisting in technical grade n-heptane with 0.2% w/w.-% Span 85 (Sorbitane trioleate, e.g. Fluka/Sigma Cat. Nr. 85549 or equivalent) non-saturated.
Procedure: the crystalline Giredestrant tartrate is directly added in the Hydro MV dispersion unit and stirred at 2500 rpm achieving an appropriate optical concentration (between 5% and 25% optical concentrations).
Measurement: The test dispersion was measured and the cumulative volume dispersion was determined using the laser diffraction instrument mentioned above in accordance with the instruction manual. Measurements were performed after 2 minutes stirring time. The Fraunhofer approximation was used for the particle diameters calculations, Opaque Particle was used for the Particle type and General purpose was used for the Analysis model. The background and the measuring duration were set at 30 seconds.
Three independent samples were measured one time. The average particle size distribution in volume at the undersize values of 10%, 50% and 90% (×10, ×50 and ×90) percentiles were evaluated from the cumulative distribution.
(§1) The following table illustrates the improved manufacturability properties of the crystalline API that is prepared according to the process of the present invention (lot “BS2008SA02”). The E1 lot was prepared according to the process described in WO2019245974.

[2] = Bulk density, tapped density and flowability of API; settings: for Bulk Density / Tapped Density: API lot
Method: as §1

[3] = BET surface area of API lots; settings: API lot
Method: as §1

[4] = Effect of compression on API degradation (HPLC); settings: 60° C./11% RH, containers open, up to 4 weeks, tartrate
Method: The effect of compression on API degradation was investigated. Samples of uncompressed API (neat API powder as-is) and compressed API (compact) were aged at 60° C./11% RH with containers open for up to 1 month. Samples were assayed by HPLC (see Example 10). […] The following HPLC method was used to measure the RRCs described herein: [table]

[5] = Form B as prepared per WO2019245974

D10 [1] [μm]	D50 [1] [μm]	D90 [1] [μm]	Bulk Density [2] [g/mL]	Tapped Density [2] [g/mL]	BET SA [3] [m2/g]	bulk density (in words) [2, 5]	flowability [2, 5]	growth of the impurity at RRT=0.58 ([4]; listed as compressed API)	SMILES	growth of the impurity at RRT=0.58 ([4]; listed as uncompressed API)
30	41	56	0.57	0.64	1.7				C[C@@H]1Cc2c([nH]c3ccccc23)[C@@H](c2c(F)cc(NC3CN(CCCF)C3)cc2F)N1CC(F)(F)CO.O=C(O)C(O)C(O)C(=O)O [BS2008SA02]	
						low bulk density	poor flowability	faster growth rate	C[C@@H]1Cc2c([nH]c3ccccc23)[C@@H](c2c(F)cc(NC3CN(CCCF)C3)cc2F)N1CC(F)(F)CO.O=C(O)C(O)C(O)C(=O)O [giredestrant tartrate, 3-((1R,3R)-1-(2,6-difluoro-4-((1-(3-fluoropropyl)azetidin-3-yl)amino)phenyl)-3-methyl-1,3,4,9-tetrahydro-2H-pyrido[3,4-b]indol-2-yl)-2,2-difluoropropan-1-ol tartrate]	growth of the impurity at RRT=0.58 was observed
2	8	27	0.31	0.41	2.9				C[C@@H]1Cc2c([nH]c3ccccc23)[C@@H](c2c(F)cc(NC3CN(CCCF)C3)cc2F)N1CC(F)(F)CO.O=C(O)C(O)C(O)C(=O)O [711-005-5467-001 (E1)]	
